For data set [1] the following is noted: cited from earlier work.
Data set [2] relates to MX-1 (Human Mammary Cancer). The data set can be described thus: in vivo Antitumor Test on MX-1 (Human Mammary Cancer) transplanted in nude mice. The settings on record: Mus musculus, ip, 528 h, i.p.; for responders at 25 mg/kg / inhibition in vivo at 25 mg/kg: 25 mg/kg/day. The method, then:
MX-1 tumor pieces (about 1 mm^3) were subcutaneously transplanted into the side part of each nude mouse (BALB/C.nu/nu, 6 to 7 weeks, female). A compound of the present invention was dissolved in a 5% solution of glucose. When the tumor volume reached 50 mm^3 (on the about 10th day after the transplantation), the solution of the compound was intraperitoneally administered to the animals once a day in accordance with each schedule. On the other hand, a 5% solution of glucose was administered to the control group. The control group had 10 animals, while each test group had 5 animals. On the 22nd day after the transplantation, tumors were taken out and weighed. The tumor multiplication inhibitory ratio of each test group to the control group was determined in accordance with the following formula: [formula] wherein T means the average tumor weight of the test group; and C means the average tumor weight of the control group.

The test system of data set [3] is P388 cells. Description: in vitro Antitumor Test on P388 Cells (Mouse Leukemic Cells), MTT, 3 days. Format: cell-based. The conditions noted are these: 72 h, 3 days incubation. Here is the method: P388 cells suspended in RPMI1640 medium (manufactured by Sanko Junyaku) containing 10% of fetal calf serum, (100 U/ml) of penicillin, 100 μg/ml of streptomycin, 5×10^-5 M of mercaptoethanol and 1 mM of sodium pyruvate were pipetted into a 96-well U-bottomed microplate at a ratio of 1.25×10^3 cells (0.1 ml) per well and incubated in a incubator containing 5% of carbon dioxide at 37° C. for a day. A compound of the present invention was dissolved in dimethyl sulfoxide to give a concentration of 10^-2 M and then diluted with the 10% fetal calf serum-containing RPMI1640 culture medium to give a concentration of 10^-4 or 10^-5 M. By taking this concentration as the maximal level, threefold serial dilution was effected with the use of the 10% fetal calf serum-containing RPMI1640 culture medium. Then these dilutions were added to the P388 incubation plate as described above at a ratio of 0.1 ml per well followed by incubation in an incubator containing 5% of carbon dioxide at 37° C. for 3 days. After the completion of the incubation, 0.05 ml/well of a 3.3 mg/ml solution of MTT [3-(4,5-dimethylthiazol-2-yl)-2,5-diphenyltetrazolium bromide] was added thereto and the incubation was continued for additional 2 hours. The microplate was centrifuged and the supernatant was aspirated off from each well. Then the formazan thus formed was dissolved in 0.1 ml of dimethyl sulfoxide and the absorbance thereof at 540 nm measured with a microplate reader was taken as an indication of the viable cell count. In accordance with the following formula, the inhibitory ratio was calculated and the 50% inhibitory concentration (IC50) of the test compound was determined: [formula] wherein T means the absorbance of a well containing the test compound; and C means the absorbance of a well containing no test compound.

Data set [4] has as its system M5076 (Mouse Reticulum Cell Sarcoma). The data set can be described thus: in vivo Antitumor Test on M5076 (Mouse Reticulum Cell Sarcoma) transplanted in BDF1 mice. The conditions noted are these: M5076, ip, 504 h, i.p.; for survival rate on day 21 at 25 mg/kg / inhibition in vivo at 25 mg/kg: 25 mg/kg/day, d9 after transplantation. The method, then: M5076 cells (1×10^6 /animal) were subcutaneously transplanted into the side part of each BDF1 mouse (aged 6 to 7 weeks, female). A compound of the present invention was dissolved in a 5% solution of glucose. From the next day of the transplantation, the solution of the compound was intraperitoneally administered to the animals once a day in accordance with each schedule. On the other hand, a 5% solution of glucose was administered to the control group. The control group had 10 animals, while each test group had 5 animals.
On the 21st day after the transplantation, tumors were taken out and weighed. The tumor multiplication inhibitory ratio of each test group to the control group was determined in accordance with the following formula: [formula] wherein T means the average tumor weight of the test group; and C means the average tumor weight of the control group.

For data set [5] the following is noted: Drugs Fut., 17, 832 (1992), cited from earlier work.
The mark [6] stands for this setting: Farmaco, 47, 1035 (1992), J. Med. Chem., 37, 593 (1994).
Where [7] appears, read: q7d × 3, read-out: Survival rate on the judgement day (22th day).
The mark [8] stands for this setting: q7d × 3, tumor weight day 22, read-out: Proliferation inhibitory ratio (%).
Where [9] appears, read: read-out: Survival rate on the judgement day (21th day).
The mark [10] stands for this setting: tumor weight day 21, read-out: Proliferation inhibitory ratio (%).

Counter-ions that a name gives are not always drawn. Like-named read-outs stand apart in the source and are kept apart here.

“2,3-dihydro-2-[2-(dimethylamino)ethyl]-1H,7H-naphthylidino[3,2,1-ij]quinazoline-1,3,7(2H)-trione”: the “antitumor activity in preclinical tests” value in data set [1] (setting [6]) is listed as “only a weak antitumor activity in preclinical tests”.

With `CN(C)CCn1c(=O)c2cccc3c(=O)c4ccccc4n(c1=O)c32` [2-[2-(dimethylamino)ethyl]pyrimid[5,6,1-de]acridine-1,3,7-trione], the “antitumor activity in preclinical tests” value in data set [1] (setting [6]) is “only a weak antitumor activity in preclinical tests”.

The IC50 is the point on the concentration scale where inhibition reaches its midpoint. A higher IC50 goes with weaker potency in that assay. Regarding `CN(C)CCn1c(=O)c2cccc3c4c5ccccc5ccc4n(c1=O)c23` [Example 1, 5-[2-(Dimethylamino)ethyl]-4H-benzo[c]pyrimido[5,6,1-jk]carbazole-4,6(5H)-dione hydrochloride], the responders at 25 mg/kg in data set [2] (q4d × 4, read-out: Survival rate on the judgement day (22th day)) is 100%. Further, the inhibition in vivo at 25 mg/kg in data set [2] (q4d × 4, tumor weight day 22, read-out: Proliferation inhibitory ratio (%)) stood at 48%. Besides, 290 nM corresponded to half-maximal inhibition in data set [3] (IC50). Moreover, in data set [4] (50 mg/kg/day, d1,2,3,4 after transplantation, read-out: Survival rate on the judgement day (21th day)), the survival rate on day 21 at 50 mg/kg amounted to 100%. Also, in data set [4] (50 mg/kg/day, d1,2,3,4 after transplantation, tumor weight day 21, read-out: Proliferation inhibitory ratio (%)), the inhibition in vivo at 50 mg/kg came out at 95.2%.

`CC(=O)c1ccc2c(ccc3c2c2cccc4c(=O)n(CCN(C)C)c(=O)n3c42)c1` [Example 2, 11-Acetyl-5-[2-(dimethylamino)ethyl]-4H-benzo[c]pyrimido[5,6,1-jk]carbazole-4,6(5H)-dione hydrochloride]: the responders at 25 mg/kg in data set [2] (setting [7]) came out at 100%. For the same compound, the inhibition in vivo at 25 mg/kg stood at 63.3% in data set [2] (setting [8]) and 91.4% in data set [4] (setting [10]). Further, half-maximal inhibition in data set [3] (IC50) required 70 nM. Also, the survival rate on day 21 at 25 mg/kg in data set [4] (setting [9]) is 100%.

For `CC(O)c1ccc2c(ccc3c2c2cccc4c(=O)n(CCN(C)C)c(=O)n3c42)c1` (centres unmarked) [Example 3, 5-[2-(Dimethylamino)ethyl]-11-(1-hydroxyethyl)-4H-benzo[c]pyrimido[5,6,1-jk]carbazole-4,6(5H)-dione hydrochloride], the responders at 20 mg/kg in data set [2] (20 mg/kg/day, q7d × 3, read-out: Survival rate on the judgement day (22th day)) was 100%. The inhibition in vivo at 20 mg/kg in data set [2] (20 mg/kg/day, q7d × 3, tumor weight day 22, read-out: Proliferation inhibitory ratio (%)) stood at 55.7%. Moreover, the IC50 in data set [3] is 26 nM. The survival rate on day 21 at 25 mg/kg in data set [4] (setting [9]) was 100%. The inhibition in vivo at 25 mg/kg in data set [4] (setting [10]) came to 90%.

`CN(C)CCn1c(=O)c2cccc3c4c5c(ccc4n(c1=O)c23)C(=O)CCC5` [Example 4, 12,13-Dihydro-5-[2-(dimethylamino)ethyl]-4H-benzo[c]pyrimido[5,6,1-jk]carbazole-4,6,10(5H,11H)-trione hydrochloride]: the responders at 15 mg/kg in data set [2] (15 mg/kg/day, q7d × 3, read-out: Survival rate on the judgement day (22th day)) came to 100%. Besides, the inhibition in vivo at 15 mg/kg in data set [2] (15 mg/kg/day, q7d × 3, tumor weight day 22, read-out: Proliferation inhibitory ratio (%)) amounted to 98.4%. The compound also showed a concentration for half-maximal inhibition (IC50) in data set [3] of 30 nM. Moreover, the survival rate on day 21 at 12.5 mg/kg in data set [4] (12.5 mg/kg/day, d1,8,15 after transplantation, read-out: Survival rate on the judgement day (21th day)) is 100%. For the same compound, in data set [4] (12.5 mg/kg/day, d1,8,15 after transplantation, tumor weight day 21, read-out: Proliferation inhibitory ratio (%)), the inhibition in vivo at 12.5 mg/kg was found to be 100%. Besides, the survival rate on day 21 at 25 mg/kg in data set [4] (setting [9]) came to 100%. Also, in data set [4] (setting [10]), the inhibition in vivo at 25 mg/kg was 89.2%.

As to `CN(C)CCn1c(=O)c2cccc3c4c5c(ccc4n(c1=O)c23)C(=O)CO5` [Example 8, 8-[2-(Dimethylamino)ethyl]-7H-furo[3,2-c]pyrimido[5,6,1-jk]carbazole-3,7,9(2H,8H)-trione hydrochloride], the responders at 25 mg/kg in data set [2] (setting [7]) was 100%. For the same compound, the inhibition in vivo at 25 mg/kg in data set [2] (setting [8]) turned out to be 94%. This compound also showed an IC50 in data set [3] of 340 nM. Moreover, the survival rate on day 21 at 30 mg/kg in data set [4] (30 mg/kg/day, d1,8,15 after transplantation, read-out: Survival rate on the judgement day (21th day)) was found to be 100%. The inhibition in vivo at 30 mg/kg in data set [4] (30 mg/kg/day, d1,8,15 after transplantation, tumor weight day 21, read-out: Proliferation inhibitory ratio (%)) is 99.9%.

In the case of `O=C1CCCc2c1ccc1c2c2cccc3c(=O)n(CCN4CCCC4)c(=O)n1c32` [Example 11, 12,13-Dihydro-5-[2-(1-pyrrolidinyl)ethyl]-4H-benzo [c]pyrimido[5,6,1-jk]carbazole-4,6,10(5H,11H)-trione hydrochloride], the responders at 30 mg/kg in data set [2] (30 mg/kg/day, q7d × 3, read-out: Survival rate on the judgement day (22th day)) is 100%. Besides, in data set [2] (30 mg/kg/day, q7d × 3, tumor weight day 22, read-out: Proliferation inhibitory ratio (%)), the inhibition in vivo at 30 mg/kg was determined as 82.5%. The compound also came in with a half-inhibitory concentration (IC50) in data set [3] of 42 nM.

As for `CN(C)CCN1C(=O)c2cccc3cc(N)cc(c23)C1=O` [amonafide, 5-amino-2-[2-(dimethylamino)ethyl]-1H-benz[de]isoquinoline-1,3(2H)-dione], the “efficacy in clinical tests” value in data set [5] was “poor efficacy in clinical tests”. Further, the bone marrow toxicity result in data set [5] (clinical tests) is “strong bone marrow toxicity”.

`CN(C)CCN1C(=O)c2cccc3cc4ccccc4c(c23)C1=O` [azonafide, 2-[2'-(dimethylamino)ethyl]-1,2-dihydro-3H-dibenz(deh)-isoquinoline-1,3-dione]: in data set [1] (compared with amonafide, WO9200281), the “antitumor activity in preclinical tests” value is given as “enhance the antitumor activity in preclinical tests”.

(Values after patent publication US5952335A, “Fused polycyclic heterocycle derivatives” (Eisai Co., Ltd., priority 1995, dated 1999).)
